Measurements from patent publication US20210345603A1, “COMPOSITION INTENDED FOR INCREASING THE VELOCITY OF SPERMS COMPRISING SEROTONIN AS ACTIVE COMPOUND” (YILDIZ TEKNÍK ÜNIÌVERSÍTESÌ, priority 2018, published 2021).

What was measured:
sperm cells = experiment: Sperm motility test in Makler counting chamber after incubation in sperm wash medium; format: cell-based, human; design: unit not given here
Description: The first step is to collect the sperm cells and the semen of the infertile men within the range of 28-45 is used. Specimens are obtained after a sexual abstinence for 3-4 days. All semen specimens are collected in sterile containers and left to liquefy at 37° C. for 30 minutes. 10 μl of sample is taken into Makler® counting chamber and the concentrations, motilities, viabilities, morphologies of the sperms and the leukocyte existence are evaluated. According to the motility results, the semen specimen is prepared by being washed with HTF based sperm wash solution containing Hepes buffer by using concentration and gradient methods. Washed and prepared sperms are collected in the sperm wash medium in which certain amounts of (25, 50, 100 and 200 μM) 5-HT was added, and incubated at 25′C in certain periods of time (30, 60, 90 and 120 minutes).
Sperm motility tests are performed with the sperms kept in a serotonin medium, by the measurements in the Makler® counting chamber with 30, 60, 90 and 120 min. intervals. Samples with a sperm concentration of 2×10^6 and 50×10^5 per ml max. are included in the analyses. As to the interactions of serotonin and the excipients, washed sperm cells are taken into the sperm wash mediums containing 5-HT and vitamin D, serotonin, selenium, zinc mineral, vitamin C, vitamin E, vitamin B9, vitamin B12 in certain amounts respectively, and are incubated for certain time intervals in an incubator. The dosage of the compounds is determined by examining the effect of the same on sperm motility, both individually and in combination.

fruit flies = fruit flies incapable of mating, after being fed with serotonin; cited from earlier work

## NCCc1c[nH]c2ccc(O)cc12 [serotonin]
Sperm cells; 25 μM serotonin, 30 min incubation at 25° C.
  Change in Average Motility: 82.76
Sperm cells; 25 μM serotonin, 60 min incubation at 25° C.
  Change in Average Motility: 86.28
Sperm cells; 25 μM serotonin, 90 min incubation at 25° C.
  Change in Average Motility: 81.48
Sperm cells; 25 μM serotonin, 120 min incubation at 25° C.
  Change in Average Motility: 81.41
Sperm cells; 50 μM serotonin, 30 min incubation at 25° C.
  Change in Average Motility: 80.56
Sperm cells; 50 μM serotonin, 60 min incubation at 25° C.
  Change in Average Motility: 81.66
Sperm cells; 50 μM serotonin, 90 min incubation at 25° C.
  Change in Average Motility: 86.08
Sperm cells; 50 μM serotonin, 120 min incubation at 25° C.
  Change in Average Motility: 80.45
Sperm cells; 100 μM serotonin, 30 min incubation at 25° C.
  Change in Average Motility: 83.53
Sperm cells; 100 μM serotonin, 60 min incubation at 25° C.
  Change in Average Motility: 80.16
Sperm cells; 100 μM serotonin, 90 min incubation at 25° C.
  Change in Average Motility: 83.86
Sperm cells; 100 μM serotonin, 120 min incubation at 25° C.
  Change in Average Motility: 80.4
Sperm cells; 200 μM serotonin, 30 min incubation at 25° C.
  Change in Average Motility: 82.06
Sperm cells; 200 μM serotonin, 60 min incubation at 25° C.
  Change in Average Motility: 86.46
Sperm cells; 200 μM serotonin, 90 min incubation at 25° C.
  Change in Average Motility: 86.55
Sperm cells; 200 μM serotonin, 120 min incubation at 25° C.
  Change in Average Motility: 82.55
Fruit flies
  Mating rate: 25%
